BindingDB's records for patent US20250313563 (The Broad Institute, 2025)
pIC50: −log10 of the molar value. Where “and” joins values, the source holds several entries; their conditions need not be identical. Equal entries are not always repeated.

Columns and labels:
[1] = molecular target: Glycogen synthase kinase-3 beta (Homo sapiens, UniProt P49841); experiment: TR-FRET Assay
How it was run: (§1)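 Compound was preincubated 30 min in assay buffer before the kinase reaction, which was quenched with EDTA. Phosphorylation was detected by TR-FRET after adding a solution of 40 nM streptavidin-d2 and 2 nM Tb-labelled anti-pSer641 antibody.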

[2] = molecular target: Glycogen synthase kinase-3 alpha (Homo sapiens, UniProt P49840); experiment: TR-FRET Assay
How it was run: as §1

Chain of Glycogen synthase kinase-3 alpha (P49840 whole entry): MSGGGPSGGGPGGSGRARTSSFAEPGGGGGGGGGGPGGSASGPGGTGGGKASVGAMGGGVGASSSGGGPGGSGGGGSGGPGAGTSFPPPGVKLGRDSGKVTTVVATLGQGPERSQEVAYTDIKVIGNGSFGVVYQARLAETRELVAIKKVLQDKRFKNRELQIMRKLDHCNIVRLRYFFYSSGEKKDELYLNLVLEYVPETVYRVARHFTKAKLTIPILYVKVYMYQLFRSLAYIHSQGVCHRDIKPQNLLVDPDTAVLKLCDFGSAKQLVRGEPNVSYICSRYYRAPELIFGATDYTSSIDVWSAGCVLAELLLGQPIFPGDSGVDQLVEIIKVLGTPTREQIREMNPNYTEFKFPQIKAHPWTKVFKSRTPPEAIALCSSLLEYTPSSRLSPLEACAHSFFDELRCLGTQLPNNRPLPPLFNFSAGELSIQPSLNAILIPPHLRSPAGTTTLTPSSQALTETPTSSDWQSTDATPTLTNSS
Chain of Glycogen synthase kinase-3 beta (P49841 whole entry): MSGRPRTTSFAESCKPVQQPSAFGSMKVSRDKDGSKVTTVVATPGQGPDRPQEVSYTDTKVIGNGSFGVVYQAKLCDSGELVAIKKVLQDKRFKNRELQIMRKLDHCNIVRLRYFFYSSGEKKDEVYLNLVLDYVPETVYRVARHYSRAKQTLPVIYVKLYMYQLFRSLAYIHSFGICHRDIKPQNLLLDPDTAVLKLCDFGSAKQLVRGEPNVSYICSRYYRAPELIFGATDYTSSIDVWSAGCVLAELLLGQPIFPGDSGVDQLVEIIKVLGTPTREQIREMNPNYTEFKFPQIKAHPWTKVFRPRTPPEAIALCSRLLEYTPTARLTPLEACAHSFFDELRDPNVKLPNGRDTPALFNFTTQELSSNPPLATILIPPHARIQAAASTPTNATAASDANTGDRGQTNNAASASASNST

SMILES	pIC50 [1]	pIC50 [2]
CC[C@]1(c2ccccc2)C2=CN=NC2NC2=C1C(=O)C(O)C(C)(C)C2 (some centres not stated) [US20250313563, Compound 946056]	< 5.30	6.00 to 7.00
CC1(C)CC(=O)C2=C(C1)NC1=C(CN=N1)[C@@]21CO[C@H](c2ccccc2)C1 [US20250313563, Compound 946072]	6.00 to 7.00	> 7.00
CC1(C)CC(=O)C2=C(C1)NC1N=NC=C1[C@@]21CO[C@@H](c2ccccc2)C1 (some centres not stated) [US20250313563, Compound 946073]	6.00 to 7.00	> 7.00
CC1(C)CC(=O)C2=C(C1)NC1=C(CN=N1)[C@]21CCC[C@H](C#N)C1 [US20250313563, Compound 946078]	< 5.30	5.30 to 6.00
CC1(C)CC(=O)C2=C(C1)NC1=C(CN=N1)[C@]21CCC[C@@H](C#N)C1 [US20250313563, Compound 946080]	5.30 to 6.00	5.30 to 6.00
CCn1nccc1-c1cccc([C@]2(CC)C3=CN=NC3NC3=C2C(=O)CC(C)(C)C3)c1 (some centres not stated) [US20250313563, Compound 946089]	> 7.00 and 6.00 to 7.00	> 7.00
CC[C@@]1(c2cccc(-c3ccnn3C(C)C)c2)C2=CN=NC2NC2=C1C(=O)CC(C)(C)C2 (some centres not stated) [US20250313563, Compound 946091]	> 7.00	> 7.00
CCCn1nccc1-c1cccc([C@@]2(CC)C3=CN=NC3NC3=C2C(=O)CC(C)(C)C3)c1 (some centres not stated) [US20250313563, Compound 946094]	5.30 to 6.00	6.00 to 7.00
CC[C@]1(c2cccc(-c3c(C)nnn3C)c2)C2=CN=NC2NC2=C1C(=O)CC(C)(C)C2 (some centres not stated) [US20250313563, Compound 946099]	> 7.00 and 6.00 to 7.00	> 7.00
CC[C@@]1(c2cccc(-c3c(C)nnn3C)c2)C2=CN=NC2NC2=C1C(=O)CC(C)(C)C2 (some centres not stated) [US20250313563, Compound 946100]	5.30 to 6.00	6.00 to 7.00
CC[C@]1(c2cccc(-c3ccnc(C)c3)c2)C2=CN=NC2NC2=C1C(=O)CC(C)(C)[C@H]2F (some centres not stated) [US20250313563, Compound 946103]	5.30 to 6.00	6.00 to 7.00
CC[C@@]1(c2cccc(-c3ccnc(C)c3)c2)C2=CN=NC2NC2=C1C(=O)CC(C)(C)[C@H]2F (some centres not stated) [US20250313563, Compound 946104]	6.00 to 7.00	6.00 to 7.00
Cc1ccc(S(=O)(=O)N2CCC3(CC2)C2=C(N=NC2)NC2=C3C(=O)CC(C)(C)C2)cc1Cl [US20250313563, Compound 947241]	> 7.00	> 7.00
CC1(C)CC(=O)C2=C(C1)NC1=C(CN=N1)C21CCN(S(=O)(=O)c2cccc(OC(F)F)c2)CC1 [US20250313563, Compound 947242]	> 7.00 and 6.00 to 7.00	> 7.00
CC1(C)CC(=O)C2=C(C1)NC1=C(CN=N1)C21CCN(S(=O)(=O)c2cccc(Cl)c2)CC1 [US20250313563, Compound 947243]	> 7.00 and 5.30 to 6.00	> 7.00 and 6.00 to 7.00
CC1(C)CC(=O)C2=C(C1)NC1=C(CN=N1)C21CCN(S(=O)(=O)c2cccc(C(F)(F)F)c2)CC1 [US20250313563, Compound 947244]	> 7.00	> 7.00
COc1ccc(C)c(S(=O)(=O)N2CCC3(CC2)C2=C(N=NC2)NC2=C3C(=O)CC(C)(C)C2)c1 [US20250313563, Compound 947245]	6.00 to 7.00	> 7.00
CC1(C)CC(=O)C2=C(C1)NC1=C(CN=N1)C21CCN(S(=O)(=O)c2ccc(OC(F)F)cc2)CC1 [US20250313563, Compound 947246]	> 7.00 and 6.00 to 7.00	> 7.00
CN(C)C(=O)c1cccc(S(=O)(=O)N2CCC3(CC2)C2=C(N=NC2)NC2=C3C(=O)CC(C)(C)C2)c1 [US20250313563, Compound 947247]	> 7.00	> 7.00
CC1(C)CC(=O)C2=C(C1)NC1=C(CN=N1)C21CCN(S(=O)(=O)c2ccc(C(F)F)cc2)CC1 [US20250313563, Compound 947248]	> 7.00	> 7.00
CC1(C)CC(=O)C2=C(C1)NC1=C(CN=N1)C21CCN(S(=O)(=O)c2cccc(Cl)c2Cl)CC1 [US20250313563, Compound 947249]	> 7.00	> 7.00
COCc1ccc(S(=O)(=O)N2CCC3(CC2)C2=C(N=NC2)NC2=C3C(=O)CC(C)(C)C2)cc1 [US20250313563, Compound 947250]	> 7.00	> 7.00
CC1(C)CC(=O)C2=C(C1)NC1=C(CN=N1)C21CCN(S(=O)(=O)c2ccc(F)cn2)CC1 [US20250313563, Compound 947251]	6.00 to 7.00	6.00 to 7.00
CCc1ncc(S(=O)(=O)N2CCC3(CC2)C2=C(N=NC2)NC2=C3C(=O)CC(C)(C)C2)s1 [US20250313563, Compound 947252]	> 7.00	> 7.00
CCOc1cccc(S(=O)(=O)N2CCC3(CC2)C2=C(N=NC2)NC2=C3C(=O)CC(C)(C)C2)c1 [US20250313563, Compound 947253]	> 7.00 and 5.30 to 6.00	> 7.00 and 6.00 to 7.00
CC1(C)CC(=O)C2=C(C1)NC1=C(CN=N1)C21CCN(S(=O)(=O)c2cccc(C#N)c2)CC1 [US20250313563, Compound 947254]	> 7.00 and 6.00 to 7.00	> 7.00
